Patent US20050261164A1, “Remedy for urinary frequency and urinary incontinence” (FUJISAWA PHARMACEUTICAL CO., LTD., priority 2002, published 2005)
Where a name gives a salt, the structure may show the parent alone.

Tested on: rhythmic bladder contraction, male SD rats
Assay: rhythmic bladder contraction model of a rat (frequent urination model)
Format: in vivo
Details: urethane-anesthetized male SD rats, intravenous, 0 to 10 minutes after the administration
Experimental: Male SD rats (7 to 10 weeks old, Japan SLC) were anesthetized with urethane (1 to 1.2 g/kg, intraperitoneal administration) and their lower abdomen were opened along the midline. After performing a small dissection at the apex of the bladder, a cannula (Hibiki, size 5) attached with a balloon of about 1 ml volume was inserted into the bladder. A cannula for drug administration (PE50, Becton Dickinson) was inserted into the femoral vein. The cannula for measuring intravesical pressure was connected to a pressure transducer attached with a three-way cock and water was injected into the balloon from a free opening of the three-way cock to cause rhythmic bladder contraction. The intravesical pressure at that time was recorded by a thermal recorder (Recti-Horiz8K, NEC Sanei) via an amplifier (AP-601G, Nihon Kohden). The bladder contractile frequency and force were measured every 10 minutes before the administration of a test compound and for 0 to 10 and 10 to 20 minutes after the administration. Statistical analysis was performed using randomized block analysis of variance and Dunnett's multiple comparison with respect to the measurement values obtained before the administration.

| Compound | effect on bladder contractile force (1 mg/kg) | bladder contractile frequency, % of the value obtained before the administration (1 mg/kg, p<0.05) [%] | effect on bladder contractile force (3.2 mg/kg) | bladder contractile frequency, % of the value obtained before the administration (3.2 mg/kg, p<0.01) [%] |
| --- | --- | --- | --- | --- |
| CN(C)CCNC(=O)c1cc(C(=O)N=C(N)N)cc(-c2cc(Cl)sc2Cl)c1 [test compound 2, [5-(2,5-dichlorothiophene-3-yl)-3-[(2-dimethylaminoethyl)carbamoyl]benzoyl]guanidine dihydrochloride] | without significantly affecting | 22 |  |  |
| CC(C)c1ccc(C(=O)NC(=N)N)cc1S(C)(=O)=O.CS(=O)(=O)O [test compound 1, 4-isopropyl-3-methylsulfonylbenzoyl guanidine methanesulfonate] |  |  | without significantly affecting | 25 |
| (2,3-dihydro-9-methanesulfonyl-1-benzoxepin-4-carbonyl)guanidine dihydrochloride [test compound 3] | without significantly affecting | 41 |  |  |
